Reference: US20090131409A1, “1,4,5,6,7,8-HEXAHYDRO -PYRROLO[2,3-d]AZEPINES AND -IMIDAZO[4,5-d]AZEPINES AS MODULATORS OF NUCLEAR RECEPTOR ACTIVITY” (Wyeth, priority 2007, published 2009)

Target: T1, Gal4/hFXR fusion protein (Homo sapiens, UniProt Q96RI1)
T1 sequence (Q96RI1 262-486 limits assumed): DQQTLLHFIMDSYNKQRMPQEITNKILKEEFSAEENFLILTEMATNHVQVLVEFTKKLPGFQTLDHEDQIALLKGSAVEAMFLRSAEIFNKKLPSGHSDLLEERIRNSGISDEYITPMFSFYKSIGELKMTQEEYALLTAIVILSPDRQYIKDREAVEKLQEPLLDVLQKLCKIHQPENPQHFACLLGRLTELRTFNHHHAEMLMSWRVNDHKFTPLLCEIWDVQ
Test: Gal4/hFXR fusion protein agonist activity in human 293 cells (luciferase reporter)

Row | Structure (SMILES) | EC50
1 | CC(C)OC(=O)C1CN(C(=O)c2cccc(C(F)(F)F)c2)CC(C)(C)c2cc(C#N)[nH]c21 (stereo not drawn) [iso-propyl 2-cyano-4,4-dimethyl-6-[3-(trifluoromethyl)benzoyl]-1,4,5,6,7,8-hexahydropyrrolo[2,3-d]azepine-8-carboxylate] | 2700 nM
2 | CC(C)OC(=O)C1CN(C(=O)c2ccc(C#N)cc2)CC(C)(C)c2cc(C#N)[nH]c21 (stereo not drawn) [iso-propyl 2-cyano-6-(4-cyanobenzoyl)-4,4-dimethyl-1,4,5,6,7,8-hexahydropyrrolo[2,3-d]azepine-8-carboxylate] | 5700 nM
3 | CC(C)OC(=O)C1CN(C(=O)c2ccc(Cl)cc2)CC(C)(C)c2cc(C#N)[nH]c21 (stereo not drawn) [iso-propyl 6-(4-chlorobenzoyl)-2-cyano-4,4-dimethyl-1,4,5,6,7,8-hexahydropyrrolo[2,3-d]azepine-8-carboxylate] | 4100 nM
4 | CC(C)OC(=O)C1CN(C(=O)c2ccc(F)c(F)c2)CC(C)(C)c2cc(C#N)[nH]c21 (stereo not drawn) [isopropyl 2-cyano-6-(3,4-difluorobenzoyl)-4,4-dimethyl-1,4,5,6,7,8-hexahydropyrrolo[2,3-d]azepine-8-carboxylate] | 280 nM
5 | CC(C)OC(=O)C1CN(C(=O)c2cccc(F)c2)CC(C)(C)c2cc(C#N)[nH]c21 (stereo not drawn) [isopropyl 2-cyano-6-(3-fluorobenzoyl)-4,4-dimethyl-1,4,5,6,7,8-hexahydropyrrolo[2,3-d]azepine-8-carboxylate] | 1300 nM
6 | CC(C)OC(=O)C1CN(C(=O)c2ccc(F)cc2)CC(C)(C)c2cc(C#N)[nH]c21 (stereo not drawn) [isopropyl 2-cyano-6-(4-fluorobenzoyl)-4,4-dimethyl-1,4,5,6,7,8-hexahydropyrrolo[2,3-d]azepine-8-carboxylate] | 640 nM

Continued by falling EC50, values first:

Row | EC50 | Structure (SMILES)
7 | 3300 nM | CC(C)OC(=O)C1CN(C(=O)C2CCOCC2)CC(C)(C)c2cc(C#N)[nH]c21 (stereo not drawn) [isopropyl 2-cyano-4,4-dimethyl-6-(tetrahydro-2H-pyran-4-ylcarbonyl)-1,4,5,6,7,8-hexahydropyrrolo[2,3-d]azepine-8-carboxylate]
8 | 1900 nM | CC(C)OC(=O)C1CN(C(=O)C2CCCCC2)CC(C)(C)c2cc(C#N)[nH]c21 (stereo not drawn) [iso-propyl 2-cyano-6-(cyclohexylcarbonyl)-4,4-dimethyl-1,4,5,6,7,8-hexahydropyrrolo[2,3-d]azepine-8-carboxylate]
9 | 1300 nM | CC(C)OC(=O)C1CN(C(=O)c2cccc(Cl)c2)CC(C)(C)c2cc(C#N)[nH]c21 (stereo not drawn) [iso-propyl 6-(3-chlorobenzoyl)-2-cyano-4,4-dimethyl-1,4,5,6,7,8-hexahydropyrrolo[2,3-d]azepine-8-carboxylate]
